The term inhibition denotes the change of the read-out against control, counted positive when it falls. Read a high inhibition as a strong effect. What is called fold induction is the ratio of treated to control signal.

For one experiment, the target named is T1, CDK2/cyclin E (Homo sapiens, UniProt P24941).
T1 construct: His6 (N); made in house; host or cells: Sf9 insect cells (baculovirus)
Nature of the experiment: CDK/cyclin kinase assay, CDK2/cyclin E. Type of experiment: biochemical. The note with it: for inhibition at 1 µM: primary screening at 1 μM; for IC50: read-out: Kinase inhibition IC50 CDK2/E. The protocol: (§1) CDK4/cyclin D1, CDK1/cyclin B, CDK2/cyclin E, CDK2/cyclin A, CDK9/cyclin T1 and CDK7/cyclin H, all with a His6 tag on the N-terminus, were expressed in Sf9 insect cells using an appropriate baculovirus construct. Sf9 culture (1.6×10^6 cells/mL) was infected (MOI of 3) for two days. The cells were harvested by low speed centrifugation and the protein was purified from the insect cell pellet by metal affinity chromatography. In short: the insect cell pellet was lysed in Buffer A (10 mM Tris-HCl pH 8.0, 150 mM NaCl, 0.02% NP-40, 5 mM β-mercaptoethanol, 20 mM NaF, 1 mM Na3VO4, and Sigma Protease Inhibitor Cocktail) by sonication. The soluble fraction was cleared by centrifugation and loaded onto Ni-NTA-Agarose (Qiagen). Non-bound protein was washed off with 300 mM NaCl, 5-15 mM imidazole in buffer A and the bound protein was eluted with buffer A supplemented with 250 mM imidazole. The purified proteins were extensively dialyzed against storage buffer (20 mM HEPES pH 7.4, 50 mM NaCl, 2 mM DTT, 1 mM EDTA, 1 mM EGTA, 0.02% NP-40, 10% v/v glycerol) and stored at −70° C.
(§2) Compounds were investigated for their CDK2/cyclin E, CDK2/cyclin A, CDK1/cyclin B, and CDK4/cyclin D1 inhibitory activity. His6-tagged recombinant human cyclin-dependent kinases CDK1/cyclin B1, CDK2/cyclin E, CDK2/cyclin A, and CDK4 were expressed in sf9 insect cells using a baculovirus expression system. Recombinant cyclin D1 was expressed in E. coli. Proteins were purified by metal chelate affinity chromatography to greater than 90% homogeneity. Kinase assays were performed in 96-well plates using recombinant CDK/cyclins. Assays were performed in assay buffer (25 mM β-glycerophosphate, 20 mM MOPS, 5 mM EGTA, 1 mM DTT, 1 mM […], pH 7.4), into which were added 2-4 μg of active enzyme with appropriate substrates (purified histone H1 for CDK1 and CDK2, recombinant GST-retinoblastoma protein (residues 773-928) for CDK4). The reaction was initiated by addition of Mg/ATP mix (15 mM MgCl2+100 μM ATP with 30-50 kBq per well of [γ-^32P]-ATP) and mixtures incubated for 10-45 min, as required, at 30° C. Reactions were stopped on ice, followed by filtration through p81 or GF/C filterplates (for CDK4) (Whatman Polyfiltronics, Kent, UK). After washing 3 times with 75 mM aq orthophosphoric acid, plates were dried, scintillant added and incorporated radioactivity measured in a scintillation counter (TopCount, Packard Instruments, Pangbourne, Berks, UK). Compounds for kinase assays were made up as 10 mM stocks in DMSO and diluted into 10% DMSO in assay buffer. Data was analysed using curve-fitting software (GraphPad Prism version 3.00 for Windows, GraphPad Software, San Diego Calif. USA) to determine IC50 values (concentration of test compound which inhibits kinase activity by 50%).

The next experiment addresses T2, CDK4/cyclin D1 (Homo sapiens, UniProt P11802).
T2 construct: His6 (N); made in house; host or cells: CDK4: Sf9 insect cells (baculovirus); Cyclin D1: E. coli, Sf9
The experiment is described as follows: CDK/cyclin kinase assay, CDK4/cyclin D1. It counts as biochemical. The note with it: for inhibition at 1 µM: primary screening at 1 μM; for IC50: read-out: Kinase inhibition IC50 CDK4/D1. The protocol:
as §1, §2

For the next experiment, the target named is T3, GSK-3β (Oryctolagus cuniculus, UniProt G1T8E2).
T3 construct: isolated from a strain of E. coli that carries a clone expressing GSK-3β derived from a rabbit skeletal muscle cDNA library [34]
Nature of the experiment: GSK-3β kinase assay. Type of experiment: biochemical, rabbit. The note with it: read-out: Kinase inhibition IC50 GSK3β. As for the experimental part: GSK-3 was obtained from New England Biolabs (UK) Ltd., Hitchin, Herts. The recombinant enzyme was isolated from a strain of E. coli that carries a clone expressing GSK-3β derived from a rabbit skeletal muscle cDNA library. Inhibition of GSK-3 function was assessed by measurement of phosphorylation of CREB phosphopeptide KRREILSRRPpSYR in the presence of test compounds. Using a 96-well assay format, GSK3 (7.5 U) was incubated for 30 min at 30° C. in a total volume of 25 μL in 20 mM MOPS pH 7.2, 25 mM β-glycerophosphate, 5 mM EGTA, 1 mM DTT, 1 mM […], 40 μM CREB peptide, 15 mM MgCl2 and 100 μM ATP (containing 0.25 μCi [γ-^32P]-ATP) in the presence of varying concentrations of test compound. The samples were transferred to 96-well p81 filter plates (Whatman Polyfiltronics, Kent, UK), and the plates were washed 4 times with 200 μL/well of 75 mM aq orthophosphoric acid. Scintillation liquid (50 μL) was added to each well, and incorporated radioactivity for each sample was determined using a scintillation counter (TopCount, Packard Instruments, Pangbourne, Berks, UK).

The target in a further experiment is T4, CDK2/cyclin A (Homo sapiens, UniProt P24941).
T4 construct: His6 (N); made in house; host or cells: Sf9 insect cells (baculovirus)
Nature of the experiment: CDK/cyclin kinase assay, CDK2/cyclin A. Type of experiment: biochemical. The note with it: for inhibition at 1 µM: primary screening at 1 μM; for IC50: read-out: Kinase inhibition IC50 CDK2/A. As for the experimental part: as §1, §2

The target of a further experiment is T5, CDK1/cyclin B1 (Homo sapiens, UniProt P06493).
T5 construct: His6 (N); made in house; host or cells: Sf9 insect cells (baculovirus)
The experiment is described as follows: CDK/cyclin kinase assay, CDK1/cyclin B1. Type of experiment: biochemical. The note with it: for inhibition at 1 µM: primary screening at 1 μM; for IC50: read-out: Kinase inhibition IC50 CDK1/B1. The protocol:
as §1, §2

Experiment [1] has as its system glycogen synthase activity in HEK293 cells. Nature of the experiment: Glycogen synthase (GS) assay in HEK293 cells. Type of experiment: cell-based, human. The note with it: Homo sapiens; In HEK293 cells at [compound] = 5 μM (Table 2). As for the experimental part:
Cells on 10 cm dishes (Human Embryonic Kidney (HEK) 293 cells, L6 rat myocytes, or 3T3 mouse adipocytes) were treated with different concentrations of GSK3-inhibitors or DMSO vehicle for 90 min. Incubation medium was removed and cells were washed with ice-cold phosphate-buffered saline (PBS) prior to lysis on ice in 50 mM HEPES, pH 7.5, 10 mM EDTA, 100 mM NaF, 5 mM DTT, protease inhibitor cocktail (Sigma). After a freeze/thaw cycle the samples are sonicated for 10 sec and centrifuged at 15,000 g for 10 min at 4° C. Lysate supernatants were snap-frozen on liquid nitrogen and stored at −80° C. Lysates were assayed for glycogen synthase activity in buffer (50 mM Tris-HCl, pH 7.8, 20 mM EDTA, 25 mM NaF, 5 mM DTT, 1% glycogen, 0.3 mM UDP-glucose and 0.06 μCi of [^14C]-UDP-glucose in the presence of 0.1 or 10 mM glucose-6-phosphate. The reaction was carried out for 30 min at 30° C. 70 μL of the reaction mixture (total volume 90 μL) were transferred to a GFC 96-well filter plate (bottom sealed with foil), containing 140 μL 96% ethanol. The GFC plate was incubated for 1 h on ice and than washed with 66% ethanol. To each well 100 μL scintillant liquid was added and the radioactivity of the samples was measured using a scintillation counter (Topcount, HP). Data are expressed as -fold increase in glycogen synthase activity ratios over those of control samples.

T3 sequence (G1T8E2 1-432): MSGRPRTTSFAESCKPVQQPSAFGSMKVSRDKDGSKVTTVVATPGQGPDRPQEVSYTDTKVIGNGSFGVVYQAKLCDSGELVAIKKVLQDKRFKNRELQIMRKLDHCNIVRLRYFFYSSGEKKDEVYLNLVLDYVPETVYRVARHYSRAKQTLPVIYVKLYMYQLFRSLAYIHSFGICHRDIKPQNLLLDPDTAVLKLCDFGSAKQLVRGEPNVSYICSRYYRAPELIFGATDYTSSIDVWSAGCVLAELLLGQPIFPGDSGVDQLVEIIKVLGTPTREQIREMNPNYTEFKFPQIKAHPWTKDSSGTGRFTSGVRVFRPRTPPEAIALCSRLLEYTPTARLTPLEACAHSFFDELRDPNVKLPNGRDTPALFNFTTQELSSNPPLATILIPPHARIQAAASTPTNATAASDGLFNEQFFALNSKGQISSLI
T5 sequence (P06493 whole entry): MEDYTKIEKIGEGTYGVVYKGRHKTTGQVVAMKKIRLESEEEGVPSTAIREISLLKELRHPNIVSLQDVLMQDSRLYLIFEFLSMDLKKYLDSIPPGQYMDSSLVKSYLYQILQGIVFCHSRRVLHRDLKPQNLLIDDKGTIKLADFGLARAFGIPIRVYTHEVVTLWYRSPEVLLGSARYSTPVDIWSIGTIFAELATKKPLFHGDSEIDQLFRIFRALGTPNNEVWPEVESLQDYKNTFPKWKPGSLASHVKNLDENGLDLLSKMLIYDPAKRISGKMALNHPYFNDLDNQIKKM
T5 sequence (P14635 whole entry partner): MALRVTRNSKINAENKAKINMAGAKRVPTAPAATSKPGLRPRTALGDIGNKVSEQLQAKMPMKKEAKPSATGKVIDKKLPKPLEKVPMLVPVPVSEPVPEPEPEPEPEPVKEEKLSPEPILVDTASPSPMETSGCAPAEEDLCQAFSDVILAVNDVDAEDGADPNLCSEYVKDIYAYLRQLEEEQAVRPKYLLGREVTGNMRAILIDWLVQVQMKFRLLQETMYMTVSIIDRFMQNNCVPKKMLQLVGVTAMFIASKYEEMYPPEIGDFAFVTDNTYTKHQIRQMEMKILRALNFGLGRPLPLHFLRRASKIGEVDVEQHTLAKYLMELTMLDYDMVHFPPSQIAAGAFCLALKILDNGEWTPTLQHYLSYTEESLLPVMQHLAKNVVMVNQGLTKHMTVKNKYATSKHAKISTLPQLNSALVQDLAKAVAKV
T2 sequence (P11802 whole entry): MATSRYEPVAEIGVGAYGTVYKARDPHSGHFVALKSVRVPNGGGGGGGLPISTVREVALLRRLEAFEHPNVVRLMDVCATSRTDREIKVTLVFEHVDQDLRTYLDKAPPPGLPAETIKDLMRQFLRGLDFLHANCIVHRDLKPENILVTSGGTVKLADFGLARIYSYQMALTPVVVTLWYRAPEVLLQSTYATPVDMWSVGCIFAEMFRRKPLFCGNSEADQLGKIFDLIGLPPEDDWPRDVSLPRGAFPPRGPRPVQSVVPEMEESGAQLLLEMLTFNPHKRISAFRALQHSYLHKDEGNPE
T2 sequence (P24385 whole entry partner): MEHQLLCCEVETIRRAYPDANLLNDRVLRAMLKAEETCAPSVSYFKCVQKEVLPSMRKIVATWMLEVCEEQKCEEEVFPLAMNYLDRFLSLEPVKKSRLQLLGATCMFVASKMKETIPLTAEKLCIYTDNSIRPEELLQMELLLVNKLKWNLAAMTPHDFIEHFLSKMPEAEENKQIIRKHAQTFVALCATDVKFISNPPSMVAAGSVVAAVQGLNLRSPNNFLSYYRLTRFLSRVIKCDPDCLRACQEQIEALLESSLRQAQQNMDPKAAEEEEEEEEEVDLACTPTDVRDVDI

On to `Cc1nc(-c2ccnc(Nc3cccc(C(F)(F)F)c3)n2)sc1C` [Compound X, [4-(4,5-Dimethyl-thiazol-2-yl)-pyrimidin-2-yl]-(3-trifluoromethyl-phenyl)-amine], for which the inhibition at 1 µM at CDK2/cyclin E, at CDK4/cyclin D1, against CDK2/cyclin A and at CDK1/cyclin B1 was less than 50% throughout. The IC50 on GSK-3β came out at 12200 nM.

For `Cc1nc(-c2ccnc(Nc3ccc(Cl)c(C(F)(F)F)c3)n2)sc1C` [Compound XI, (4-Chloro-3-trifluoromethyl-phenyl)-[4-(4,5-dimethyl-thiazol-2-yl)-pyrimidin-2-yl]-amine], the inhibition at 1 µM on CDK2/cyclin E, against CDK4/cyclin D1, against CDK2/cyclin A and at CDK1/cyclin B1 was less than 50% each time. Besides, the IC50 on GSK-3β is 15600 nM.

On to `Cc1nc(-c2ccnc(Nc3cccc(O)c3)n2)sc1C` [IX, 3-[4-(4,5-Dimethyl-thiazol-2-yl)-pyrimidin-2-ylamino]-phenol], for which the inhibition at 1 µM on CDK2/cyclin E, at CDK4/cyclin D1, at CDK2/cyclin A and on CDK1/cyclin B1 was less than 50% in each case. Further, the IC50 at GSK-3β came to 1530 nM.

For `CCOC(=O)c1sc(-c2ccnc(Nc3ccc(Cl)cc3)n2)nc1O` [VII, 2-[2-(4-Chloro-phenylamino)-pyrimidin-4-yl]-4-hydroxy-thiazole-5-carboxylic acid ethyl ester], the IC50 was more than 1 µM on CDK2/cyclin E; more than 10 µM at CDK4/cyclin D1; 135 nM at GSK-3β; more than 10 µM on CDK2/cyclin A; more than 10 µM on CDK1/cyclin B1. In experiment [1], the fold induction at 5 µM was found to be 2.3.

As for `Cc1nc(-c2ccnc(Nc3cccc(N)c3)n2)sc1C` [VIII, N-[4-(4,5-Dimethyl-thiazol-2-yl)-pyrimidin-2-yl]-benzene-1,3-diamine], the inhibition at 1 µM at CDK2/cyclin E, at CDK4/cyclin D1, against CDK2/cyclin A and at CDK1/cyclin B1 was less than 50% throughout. In addition, at GSK-3β, the IC50 worked out at 3470 nM.

On to `COc1ccc(Nc2nccc(-c3nccs3)n2)cn1` [XIII, (6-Methoxy-pyridin-3-yl)-(4-thiazol-2-yl-pyrimidin-2-yl)-amine], for which the IC50 at CDK2/cyclin E is more than 50 µM; at CDK4/cyclin D1 it was more than 100 µM; on GSK-3β, 910 nM; on CDK2/cyclin A, more than 100 µM; at CDK1/cyclin B1 it was more than 100 µM. In addition, the fold induction at 5 µM in experiment [1] amounted to 1.5.

For the compound `COc1ccc(Nc2nccc(-c3nc(C)c(C)s3)n2)cn1` [XVI, [4-(4,5-Dimethyl-thiazol-2-yl)-pyrimidin-2-yl]-(6-methoxy-pyridin-3-yl)-amine], the IC50 on CDK2/cyclin E is more than 1 µM; at CDK4/cyclin D1, more than 10 µM; on GSK-3β, 5450 nM; at CDK2/cyclin A it was more than 10 µM; on CDK1/cyclin B1, more than 10 µM.

Consider `Cc1nc(-c2ccnc(Nc3ccc(Cl)nc3)n2)sc1C` [XVII, (6-Chloro-pyridin-3-yl)-[4-(4,5-dimethyl-thiazol-2-yl)-pyrimidin-2-yl]-amine], for which the IC50 at CDK2/cyclin E is more than 10 µM; on CDK4/cyclin D1, more than 10 µM; on GSK-3β it was 2910 nM; on CDK2/cyclin A, more than 10 µM; on CDK1/cyclin B1, more than 10 µM.

Consider `Cc1sc(-c2ccnc(Nc3ccc(Cl)cc3)c2)nc1O` [XXII, 2-[2-(4-Chloro-phenylamino)-pyridin-4-yl]-5-methyl-thiazol-4-ol], for which the inhibition at 1 µM at CDK2/cyclin E, against CDK4/cyclin D1, against CDK2/cyclin A and on CDK1/cyclin B1 was less than 50% each time. In addition, the IC50 at GSK-3β worked out at 470 nM. The fold induction at 5 µM in experiment [1] was 1.5 ± 0.4.

`c1cc(-c2nccs2)nc(Nc2ccc(N3CCCC3)nc2)n1` [XXIII, (6-Pyrrolidin-1-yl-pyridin-3-yl)-(4-thiazol-2-yl-pyrimidin-2-yl)-amine]: the inhibition at 1 µM against CDK2/cyclin E, on CDK4/cyclin D1, on CDK2/cyclin A and against CDK1/cyclin B1 was less than 50% in each case. Further, the IC50 at GSK-3β amounted to 482 nM. Moreover, the fold induction at 5 µM in experiment [1] was 1.35 ± 0.07.

Turning to `CCOC(=O)c1sc(-c2ccnc(Nc3ccc(Cl)nc3)n2)nc1O` [XXIV, 2-[2-(6-Chloro-pyridin-3-ylamino)-pyrimidin-4-yl]-4-hydroxy-thiazole-5-carboxylic acid ethylester], the inhibition at 1 µM at CDK2/cyclin E, at CDK2/cyclin A and at CDK1/cyclin B1 was less than 50% each time. The results for the IC50 at CDK4/cyclin D1 and at GSK-3β were 0.96 µM and 19 nM, respectively. For the same compound, in experiment [1], the fold induction at 5 µM came out at 4.3 ± 0.32.

Take `Cc1sc(-c2ccnc(Nc3ccc(Cl)nc3)n2)nc1O` [XXV, 2-[2-(6-Chloro-pyridin-3-ylamino)-pyrimidin-4-yl]-5-methyl-thiazol-4-ol]: the inhibition at 1 µM against CDK2/cyclin E, at CDK2/cyclin A and against CDK1/cyclin B1 was less than 50% throughout. Also, the IC50 at GSK-3β is 80 nM. In addition, the fold induction at 5 µM in experiment [1] worked out at 2.1 ± 0.3.

On to `Cc1cc(Nc2nccc(-c3nccs3)n2)cnc1Cl` [XXVII, (6-Chloro-5-methyl-pyridin-3-yl)-(4-thiazol-2-yl-pyrimidin-2-yl)-amine], for which, at CDK2/cyclin E, the inhibition at 1 µM was less than 50%. Moreover, the IC50 at GSK-3β was found to be 90 nM. The fold induction at 5 µM in experiment [1] is 1.5 ± 0.4.

The record behind these values is patent US20080318954A1, “Compounds” (Cyclacel Limited, priority 2004, published 2008).
